For 14 compounds, IC50 results are on record in patent publication US20260085034A1, “N-(BENZHYDRYL)CYCLOALKYLCARBOXAMIDE DERIVATIVES AS INHIBITORS OF GLYCOGEN SYNTHASE 1 (GYS1) AND METHODS OF USE THEREOF” (Maze Therapeutics, Inc., priority 2022, published 2026).

The target of assay [1] is T1, recombinant hGYS2/GN1 protein (Homo sapiens, UniProt P54840).
T1 sequence (P54840 1-703): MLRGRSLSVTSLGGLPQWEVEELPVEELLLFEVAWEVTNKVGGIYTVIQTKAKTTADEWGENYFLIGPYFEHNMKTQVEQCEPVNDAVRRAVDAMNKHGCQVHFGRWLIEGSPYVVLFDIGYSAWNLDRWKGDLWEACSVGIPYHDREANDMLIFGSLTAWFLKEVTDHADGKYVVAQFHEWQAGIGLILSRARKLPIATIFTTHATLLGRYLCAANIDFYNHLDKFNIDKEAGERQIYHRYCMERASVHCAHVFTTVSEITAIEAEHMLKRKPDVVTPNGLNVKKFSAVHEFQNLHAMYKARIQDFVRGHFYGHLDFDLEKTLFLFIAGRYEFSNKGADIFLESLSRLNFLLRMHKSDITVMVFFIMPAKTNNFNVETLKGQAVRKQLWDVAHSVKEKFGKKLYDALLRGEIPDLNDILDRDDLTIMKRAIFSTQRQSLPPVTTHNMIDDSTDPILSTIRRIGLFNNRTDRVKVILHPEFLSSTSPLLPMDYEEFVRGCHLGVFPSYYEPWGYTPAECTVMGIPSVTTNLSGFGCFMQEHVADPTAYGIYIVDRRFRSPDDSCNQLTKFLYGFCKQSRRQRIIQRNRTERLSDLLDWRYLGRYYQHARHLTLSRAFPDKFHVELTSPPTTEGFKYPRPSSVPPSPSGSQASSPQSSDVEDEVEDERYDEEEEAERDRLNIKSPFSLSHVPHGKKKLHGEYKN
T1 sequence (P46976 1-350 partner): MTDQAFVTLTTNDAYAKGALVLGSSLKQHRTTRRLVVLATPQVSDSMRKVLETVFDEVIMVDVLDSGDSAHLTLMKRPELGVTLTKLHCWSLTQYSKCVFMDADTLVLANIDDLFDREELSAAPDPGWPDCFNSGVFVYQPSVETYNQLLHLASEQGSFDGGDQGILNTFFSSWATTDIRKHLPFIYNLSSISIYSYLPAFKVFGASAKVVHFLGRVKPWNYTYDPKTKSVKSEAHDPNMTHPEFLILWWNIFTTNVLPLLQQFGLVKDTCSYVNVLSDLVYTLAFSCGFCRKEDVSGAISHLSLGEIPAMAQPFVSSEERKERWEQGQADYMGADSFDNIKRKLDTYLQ
Kind of assay: GYS2 coupled enzyme assay (PK/LDH). It counts as biochemical. The settings on record: geometric mean of at least 2 assay runs; NADH absorbance at 340 nm. The source says:
(§1) The GYS2 coupled enzyme assay is a kinetic biochemical assay that indirectly quantifies the rate of glycogen synthesis by coupling the conversion of GYS2 substrate UDP-glucose into UDP with downstream enzymatic reactions. UDP is released from UDP-glucose as glucose monomers are linked into the growing glycogen strand by GYS2. The coupled assay then proceeds with pyruvate kinase utilizing UDP and phospho(enol)pyruvate (PEP) to form pyruvate. Lactate dehydrogenase then converts pyruvate and NADH into lactate and NAD+. Oxidation of NADH to NAD+ can be measured continuously with a plate reader by quantifying the decrease in NADH absorbance at 340 nm over time.
Compounds that inhibit the hGYS2 enzyme and, subsequently, the downstream conversion of NADH to NAD+, were tested using assay ready plates (black, clear bottom 384 well plates) in a final DMSO reaction volume of 2.5% DMSO. The Assay Buffer contained 50 mM Tris pH 7.5, 2 mM MgCl2, and 100 mM KCl. Fresh stocks of BSA at a final concentration of 0.02% and TCEP 1 mM were added before splitting buffer into hGYS2 buffer and substrate buffer. To the hGYS2 buffer, rabbit liver glycogen was added at a final concentration of 0.2% glycogen. Glucose-6-Phosphate was added at 2 mM, recombinant hGYS2/GN1 protein was added at 200 nM to the substrate buffer, phosphoenolpyruvate (PEP) was added at 2 mM, UDP-Glucose was added at 2 mM, NADH was added at 0.6 mM, and Pyruvate Kinase/Lactate Dehydrogenase was added at 20 units/mL. The reaction was initiated by mixing hGYS2 buffer and substrate buffer at a 1:1 ratio. Both buffers were plated using a liquid dispensing device with hGYS2 buffer plated first followed by the substrate buffer. Plates were spun briefly to eliminate air bubbles and are immediately read in continuous mode at an absorbance of 340 nm, for 10 time points in one-minute increments, for a total of 10 minutes. The slope from these 10 time points was normalized to the positive and negative control wells. The duplicate % inhibition values are then averaged and fit to a Hill equation for dose response according to the Levenberg-Marquardt algorithm with the Hill equation maximum set to 100 and the minimum set to 0.
The results are shown in Table 5 below, which reports the IC50 of each compound. Unless otherwise specified, IC50 values are reported as the geometric mean of at least 2 assay runs on separate days. As shown in the table below, the compounds of the present invention are not potent inhibitors of human GYS2. […] Each run represents the average of a technical replicate, where each compound was assayed twice in the same plate.

Assay [2] concerns the target T2, recombinant hGYS1/GN1 protein (Homo sapiens, UniProt P13807).
T2 sequence (P13807 1-737): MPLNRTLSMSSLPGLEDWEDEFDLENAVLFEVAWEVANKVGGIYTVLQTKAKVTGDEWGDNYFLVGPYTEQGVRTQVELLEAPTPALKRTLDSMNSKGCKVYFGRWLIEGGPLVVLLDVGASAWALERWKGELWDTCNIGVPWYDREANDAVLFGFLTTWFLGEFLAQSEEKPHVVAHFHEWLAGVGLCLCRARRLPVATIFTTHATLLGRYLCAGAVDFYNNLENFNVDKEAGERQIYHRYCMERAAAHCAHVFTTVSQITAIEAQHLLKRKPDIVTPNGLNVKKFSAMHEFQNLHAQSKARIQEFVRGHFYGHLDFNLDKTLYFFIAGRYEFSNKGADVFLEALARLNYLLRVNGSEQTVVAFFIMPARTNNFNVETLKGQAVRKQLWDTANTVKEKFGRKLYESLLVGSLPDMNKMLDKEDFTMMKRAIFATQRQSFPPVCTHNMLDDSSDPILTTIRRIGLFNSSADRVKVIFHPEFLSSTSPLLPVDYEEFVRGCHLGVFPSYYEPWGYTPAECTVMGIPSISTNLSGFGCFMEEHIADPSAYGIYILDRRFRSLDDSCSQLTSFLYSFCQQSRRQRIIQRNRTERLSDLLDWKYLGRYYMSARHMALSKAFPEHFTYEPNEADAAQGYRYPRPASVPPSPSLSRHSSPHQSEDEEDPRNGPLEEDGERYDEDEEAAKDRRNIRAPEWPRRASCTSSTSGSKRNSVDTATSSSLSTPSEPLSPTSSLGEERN
T2 sequence (P46976 1-350 partner): T1 sequence (P46976 1-350 partner)
Kind of assay: GYS1 coupled enzyme assay (PK/LDH). The settings on record: geometric mean of at least 2 assay runs; NADH absorbance at 340 nm. The class given is biochemical.
From the text: as §1, with “GYS1” for “GYS2”, “GYS1.” for “GYS2.”
Compounds that inhibit the hGYS1 enzyme and, subsequently, the downstream conversion of NADH to NAD+, were tested using assay ready plates (black, clear bottom 384 well plates) in a final DMSO reaction volume of 2.5% DMSO. The Assay Buffer contained 50 mM Tris pH 7.5, 2 mM MgCl2, and 100 mM KCl. Fresh stocks of BSA at a final concentration of 0.02% and TCEP at 1 mM were added before splitting buffer into hGYS1 buffer and substrate buffer. To the hGYS1 buffer, rabbit liver glycogen was added at a final concentration of 0.2% glycogen. Glucose-6-Phosphate was added at 1 mM, recombinant hGYS1/GN1 protein was added at 50 nM to the substrate buffer, phosphoenolpyruvate (PEP) was added at 2 mM, UDP-Glucose was added at 0.8 mM, NADH) was added at 0.6 mM, and Pyruvate Kinase/Lactate Dehydrogenase was added at 20 units/mL. The reaction was initiated by mixing hGYS1 buffer and substrate buffer at a 1:1 ratio. Both buffers were plated using a liquid dispensing device with hGYS1 buffer plated first followed by the substrate buffer. Plates were spun briefly to eliminate air bubbles and are immediately read in continuous mode at an absorbance of 340 nm, for 10 time points in one-minute increments, for a total of 10 minutes. The slope from these 10 time points was normalized to the positive and negative control wells. The duplicate % inhibition values are then averaged and fit to a Hill equation for dose response according to the Levenberg-Marquardt algorithm with the Hill equation maximum set to 100 and the minimum set to 0.
The results are shown in Table 3 below, which reports the IC50 of each compound. Unless otherwise specified, IC50 values are reported as the geometric mean of at least 2 assay runs on separate days. Each run represents the average of a technical replicate, where each compound was assayed twice in the same plate. As shown in the table below, the compounds of the present invention are potent inhibitors of human GYS1.

Take `CNc1ccccc1[C@H](NC(=O)C1CC1)c1ccc(C(C)C)cc1` (single isomer, unassigned) [compound 39]: the results for the IC50 in assay [1] and in assay [2] were greater than 100 µM and 0.502 µM, respectively.
Turning to `COc1cccc([C@H](NC(=O)C2CC2)c2ccc(C(C)C)cc2)c1C` [compound 63, (R)-N-((4-isopropylphenyl)(3-methoxy-2-methylphenyl)methyl)cyclopropanecarboxamide], the values for the IC50 in assay [1] and in assay [2] were greater than 100 µM and 1.43 µM, respectively.
Take `CC(C)c1ccc([C@@H](NC(=O)C2CC2)c2ccccc2NS(C)(=O)=O)cc1` [compound 57, (R)-N-((4-isopropylphenyl)(2-(methylsulfonamido)phenyl)methyl)cyclopropanecarboxamide]: the IC50 (commonly the concentration at which inhibition is half-maximal) is greater than 100 µM in assay [1] and 2.17 µM in assay [2].
Take `CC(=O)Nc1ccc(F)cc1[C@H](NC(=O)C1CC1)c1ccc(C(C)C)cc1` (single isomer, unassigned) [compound 44]: the values for the IC50 in assay [1] and in assay [2] were greater than 100 µM and 0.378 µM, respectively.
The matching figures for `CC(C)c1ccc([C@@H](NC(=O)[C@H]2C[C@@H]2F)c2ccccc2NC(=O)C2CCN(CC3CC3)CC2)cc1` [compound 14, 1-(cyclopropylmethyl)-N-(2-((R)-((1R,2S)-2-fluorocyclopropane-1-carboxamido)(4-isopropylphenyl)methyl)phenyl)piperidine-4-carboxamide]: greater than 100 µM and 0.891 µM.
The matching figures for `CC(C)c1ccc([C@@H](NC(=O)[C@H]2C[C@@H]2F)c2ccccc2NC(=O)C2CCN(CC(F)(F)F)CC2)cc1` [compound 9, N-(2-((R)-((1R,2S)-2-fluorocyclopropane-1-carboxamido)(4-isopropylphenyl)methyl)phenyl)-1-(2,2,2-trifluoroethyl)piperidine-4-carboxamide]: greater than 100 µM and 0.956 µM.
The matching figures for `CC(C)c1ccc([C@@H](NC(=O)[C@@H]2C[C@H]2F)c2ccccc2)cc1` [compound 27, (1S,2R)-2-fluoro-N-((S)-(4-isopropylphenyl)(phenyl)methyl)cyclopropane-1-carboxamide]: greater than 100 µM and 0.598 µM.
With `CC(C)c1ccc([C@@H](NC(=O)C2CC2)c2ccc(O)cc2)cc1` [compound 68, (R)-N-((4-hydroxyphenyl)(4-isopropylphenyl)methyl)cyclopropanecarboxamide], the IC50 in assay [1] is greater than 97.4 µM; in assay [2] it was 0.663 µM.
Consider `CC(C)c1ccc([C@@H](NC(=O)C2CC2)c2ccccc2NC(=O)C2CNC2)cc1` [compound 48, (R)-N-(2-(cyclopropanecarboxamido(4-isopropylphenyl)methyl)phenyl)azetidine-3-carboxamide], for which the IC50 is greater than 100 µM in assay [1] and 1.06 µM in assay [2].
With `CC(C)c1ccc([C@@H](NC(=O)C2CC2)c2ccccc2NC(=O)C2CN(C)C2)cc1` [compound 26, (R)-N-(2-(cyclopropanecarboxamido(4-isopropylphenyl)methyl)phenyl)-1-methylazetidine-3-carboxamide], the figures for the IC50 in assay [1] and in assay [2] were greater than 100 µM and 1.19 µM, respectively.
`CC(C)c1ccc([C@@H](NC(=O)C2CC2)c2cccc3[nH]c(=O)[nH]c23)cc1` (single isomer, unassigned) [compound 29]: the IC50 in assay [1] was greater than 100 µM; in assay [2], 0.169 µM.
Consider `CC(C)c1ccc([C@@H](NC(=O)C2CC2)c2ccccc2Nc2ncco2)cc1` (single isomer, unassigned) [compound 31], for which the IC50 in assay [2] was 1.22 µM.
The same measure, in the same setting: as for `CC(C)c1ccc([C@@H](NC(=O)[C@H]2C[C@@H]2F)c2ccccc2NC(=O)C2CCN(C)CC2)cc1` [compound 12, N-(2-((R)-((1R,2S)-2-fluorocyclopropane-1-carboxamido)(4-isopropylphenyl)methyl)phenyl)-1-methylpiperidine-4-carboxamide], the figure is 1.64 µM; as for `Cc1n[nH]cc1[C@H](NC(=O)C1CC1)c1ccc(C(C)C)cc1` (single isomer, unassigned) [compound 43], 2.44 µM.
